Assay results from US20260028654A1, “BIOTECHNOLOGICAL PRODUCTION OF MACROCYCLIC LACTONES” (SYMRISE AG, priority 2022, published 2026).

How the values were obtained:
[1] = test system: cyclododecanone monooxygenase (CDMO); assay: Spectro-photometric activity assay (NADPH consumption at 340 nm), cell-free lysate containing CDMO; format: biochemical, Rhodococcus species; settings: 0.25 mM Globanone, 0.3 mM NADPH, pH 9.0, 30° C.
From the text: (§1) The genes for the two Baeyer-Villiger Monooxygenases (BVMOs) cyclopentadecanone monooxygenase from a Pseudomonas species (CPDMO, Iwaki, H. et al., Appl. Environ. Microbiol. (2006), 72 (4): 2707-2720) and cyclododecanone monooxygenase from a Rhodococcus species (CDMO, Kostichka, K. et al., J. Bacteriol. (2001), 183 (21): 6478-6486) were cloned using standard molecular biology tools. For recombinant enzyme production in Escherichia coli an L-arabinose inducible vector derived from a pBAD plasmid carrying a kanamycin/neomycin resistance gene was used in an E. coli K-12 strain, in which the Larabinose catabolism is disrupted. Glycerol stocks were used to inoculate 5 ml overnight cultures (LB, 100 μg/ml neomycin). […]
(§2) Protein concentrations of the lysates were determined to calculate specific activities (Protein determination by Bradford). The concentrations of total protein in the cell-free extracts (CFEs) were determined using a modified protein-dye binding method as described by Bradford in Anal. Biochem. 72: 248-254 (1976).
(§3) To determine if the two BVMOs were active on Globanone® a spectro-photometric activity assay was applied. The assay makes use of the strong absorbance decrease at 340 nm upon consumption of the NADPH cofactor. […] The decrease of absorbance was followed for 3 minutes before substrate addition to detect potential, unspecific NADPH oxidation. […]

[2] = test system: cyclopentadecanone monooxygenase (CPDMO); assay: Spectro-photometric activity assay (NADPH consumption at 340 nm), cell-free lysate containing CPDMO; format: biochemical, Pseudomonas species; settings: 0.25 mM Globanone, 0.3 mM NADPH, pH 9.0, 30° C.
From the text: as §1, §2, §3

O=C1CCCCCCC=CCCCCCCC1 [Globanone®]
volumetric activity ([1]; E. coli cell-free lysate containing CDMO (18.6 mg/ml protein)): 3.71 U/ml | specific activity ([1]; per mg total cell-free lysate protein, CDMO lysate): 0.20 U/mg | volumetric activity ([2]; E. coli cell-free lysate containing CPDMO (9.9 mg/ml protein)): 0.04 U/ml | specific activity ([2]; per mg total cell-free lysate protein, CPDMO lysate): 0.004 U/mg
